Legend:
[1] = test system: S. aureus C0032; assay: Checkerboard assay of 83 with kanamycin A; type: cell-based; conditions: for checkerboard well reading (growth): Supp. Figure 3 C
[2] = test system: P. aeruginosa C0307; assay: Bacterial growth kinetics over 24 h; type: cell-based
[3] = biological target: T1, APH(2”)-IVa (Enterococcus casseliflavus, UniProt O68183); assay: biochemical
[4] = test system: S. aureus C0032; assay: Bacterial growth kinetics over 24 h; type: cell-based; conditions: for Increase of latency: 500 µM 83
[5] = biological target: T2, APH(3’)-IIb (Pseudomonas aeruginosa, UniProt Q9HWR2, M95L); assay: Isothermal Titration Calorimetry; type: binding, P. aeruginosa
T2 sequence (Q9HWR2 1-268 M95L): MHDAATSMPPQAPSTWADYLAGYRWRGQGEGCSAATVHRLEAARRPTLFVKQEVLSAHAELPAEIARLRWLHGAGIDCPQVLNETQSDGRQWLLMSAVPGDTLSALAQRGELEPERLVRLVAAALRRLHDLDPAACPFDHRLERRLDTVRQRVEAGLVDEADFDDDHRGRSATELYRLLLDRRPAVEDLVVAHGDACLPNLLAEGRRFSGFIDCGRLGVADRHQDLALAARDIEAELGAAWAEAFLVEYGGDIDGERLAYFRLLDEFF
Method: (§1) ITC experiments were performed on three different machines: a MicroCal VP-ITC (GE Healthcare), a MicroCal PEAQ-ITC (Malvern), or a MicroCal iTC200 (Malvern). The architecture and principles are similar for the three different systems. The experiments were carried out in Buffer HEPES at 25 °C. Titrations consisted of twenty injections of 1.5 µL inhibitors, every 120 seconds, into the measuring cell using the injection syringe rotating at 750 rpm. The data were analyzed using the MicroCal PEAQ-ITC software (v. 1.52, Malvern) using the single-site binding model to fit the raw data. The standard error of the Kd value was determined from measurements made on distinct samples (n indicated in the text).

[6] = biological target: T3, APH(3’)-Ib (Escherichia coli, UniProt P14509); assay: biochemical; set-up: species or system E. coli and K. pneumoniae
T3 construct: His-tag (inferred from HisTrap purification); made in house; host or cells: E. coli BL21

[7] = biological target: T1, APH(2”)-IVa; assay: biochemical; type: binding
Method: as §1

[8] = biological target: T4, APH(3’)-IIa (Klebsiella pneumoniae, UniProt P00552); assay: biochemical; set-up: species or system K. pneumoniae
T4 construct: His-tag (inferred from HisTrap purification); made in house; host or cells: E. coli BL21

[9] = up to 500 µM (109 µg mL^−1), no kanamycin A, 24 h

T1 sequence (O68183 1-301): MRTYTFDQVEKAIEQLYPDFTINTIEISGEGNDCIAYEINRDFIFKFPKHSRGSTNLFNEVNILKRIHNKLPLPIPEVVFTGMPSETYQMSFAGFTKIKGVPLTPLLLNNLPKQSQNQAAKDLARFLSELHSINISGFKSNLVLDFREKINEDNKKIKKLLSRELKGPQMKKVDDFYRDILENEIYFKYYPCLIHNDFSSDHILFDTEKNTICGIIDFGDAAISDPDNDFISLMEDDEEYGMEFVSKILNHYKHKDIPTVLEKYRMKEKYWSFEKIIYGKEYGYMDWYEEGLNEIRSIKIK
T3 sequence (P14509 whole entry): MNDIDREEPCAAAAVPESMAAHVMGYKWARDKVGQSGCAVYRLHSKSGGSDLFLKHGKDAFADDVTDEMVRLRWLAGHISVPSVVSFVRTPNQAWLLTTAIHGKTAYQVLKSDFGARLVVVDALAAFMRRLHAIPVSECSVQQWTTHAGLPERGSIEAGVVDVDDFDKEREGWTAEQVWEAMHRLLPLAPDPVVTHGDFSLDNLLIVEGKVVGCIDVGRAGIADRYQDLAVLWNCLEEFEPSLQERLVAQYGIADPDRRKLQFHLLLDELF
T4 sequence (P00552 whole entry): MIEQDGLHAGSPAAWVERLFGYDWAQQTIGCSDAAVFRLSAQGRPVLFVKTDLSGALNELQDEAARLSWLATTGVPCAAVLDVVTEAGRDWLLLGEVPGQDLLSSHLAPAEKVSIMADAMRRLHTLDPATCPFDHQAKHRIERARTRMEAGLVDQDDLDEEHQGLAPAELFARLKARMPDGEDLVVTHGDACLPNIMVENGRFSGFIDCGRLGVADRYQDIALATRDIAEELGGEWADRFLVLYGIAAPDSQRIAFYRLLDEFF

Clc1cnc2[nH]ccc2c1-c1ccn[nH]1 [Compound 83]
checkerboard well reading (growth) ([1]; 83 16 µg.mL-1, kanamycin A 8 µg.mL-1): 0.293
checkerboard well reading (growth) ([1]; 83 16 µg.mL-1, kanamycin A 16 µg.mL-1): 0.274
checkerboard well reading (growth) ([1]; 83 16 µg.mL-1, kanamycin A 32 µg.mL-1): 0.258
checkerboard well reading (growth) ([1]; 83 16 µg.mL-1, kanamycin A 64 µg.mL-1): 0.242
checkerboard well reading (growth) ([1]; 83 16 µg.mL-1, kanamycin A 128 µg.mL-1): 0.200
checkerboard well reading (growth) ([1]; 83 32 µg.mL-1, kanamycin A 0 µg.mL-1): 0.378
checkerboard well reading (growth) ([1]; 83 32 µg.mL-1, kanamycin A 2 µg.mL-1): 0.299
checkerboard well reading (growth) ([1]; 83 32 µg.mL-1, kanamycin A 4 µg.mL-1): 0.294
checkerboard well reading (growth) ([1]; 83 32 µg.mL-1, kanamycin A 8 µg.mL-1): 0.273
checkerboard well reading (growth) ([1]; 83 32 µg.mL-1, kanamycin A 16 µg.mL-1): 0.281
checkerboard well reading (growth) ([1]; 83 32 µg.mL-1, kanamycin A 32 µg.mL-1): 0.249
checkerboard well reading (growth) ([1]; 83 32 µg.mL-1, kanamycin A 64 µg.mL-1): 0.215
checkerboard well reading (growth) ([1]; 83 32 µg.mL-1, kanamycin A 128 µg.mL-1): 0.082
checkerboard well reading (growth) ([1]; 83 64 µg.mL-1, kanamycin A 0 µg.mL-1): 0.357
checkerboard well reading (growth) ([1]; 83 64 µg.mL-1, kanamycin A 2 µg.mL-1): 0.295
checkerboard well reading (growth) ([1]; 83 64 µg.mL-1, kanamycin A 4 µg.mL-1): 0.275
checkerboard well reading (growth) ([1]; 83 64 µg.mL-1, kanamycin A 8 µg.mL-1): 0.274
checkerboard well reading (growth) ([1]; 83 64 µg.mL-1, kanamycin A 16 µg.mL-1): 0.256
checkerboard well reading (growth) ([1]; 83 64 µg.mL-1, kanamycin A 32 µg.mL-1): 0.227
checkerboard well reading (growth) ([1]; 83 64 µg.mL-1, kanamycin A 64 µg.mL-1): 0.165
checkerboard well reading (growth) ([1]; 83 64 µg.mL-1, kanamycin A 128 µg.mL-1): 0.053
checkerboard well reading (growth) ([1]; 83 128 µg.mL-1, kanamycin A 0 µg.mL-1): 0.433
checkerboard well reading (growth) ([1]; 83 128 µg.mL-1, kanamycin A 2 µg.mL-1): 0.365
checkerboard well reading (growth) ([1]; 83 128 µg.mL-1, kanamycin A 4 µg.mL-1): 0.303
checkerboard well reading (growth) ([1]; 83 128 µg.mL-1, kanamycin A 8 µg.mL-1): 0.296
checkerboard well reading (growth) ([1]; 83 128 µg.mL-1, kanamycin A 16 µg.mL-1): 0.283
checkerboard well reading (growth) ([1]; 83 128 µg.mL-1, kanamycin A 32 µg.mL-1): 0.276
checkerboard well reading (growth) ([1]; 83 128 µg.mL-1, kanamycin A 64 µg.mL-1): 0.204
checkerboard well reading (growth) ([1]; 83 128 µg.mL-1, kanamycin A 128 µg.mL-1): 0.066
Impact of 83 alone on bacterial growth ([1]; absence of antibiotics, 83 from 0 to 128 µg mL^−1 (585 µM)): no impact on bacterial growth
Delay of the onset of growth ([2]; 8 µg mL^−1 kanamycin A, 83 at 500 µM): around 6 h
Extension of latency ([2]; 16 µg mL^−1 kanamycin A, 500 µM 83): 12 h
Growth ([2]; 32 µg mL^−1 kanamycin A, 500 µM 83, 24 h of incubation): growth did not begin after 24 h of incubation
Toxicity of 83 alone on bacteria [2, 9]: no toxicity
inhibition at 100 µM ([3]; 100 µM of 83): 95%
Ki ([3]; Ki (µM), inhibition constant, ATP-competitive, 0-2 mM MgATP, 100 µM kanamycin A, global fitting): 0.39 ± 0.04 µM
Increase of latency ([4]; 1024 µg mL^−1 kanamycin A): 14 h
Increase of latency ([4]; 2048 µg mL^−1 kanamycin A): 18 h
Growth ([4]; 4096 µg mL^−1 kanamycin A, 250 and 500 µM 83, after 24 h): no growth was detected
Effect on growth kinetics ([4]; 256 and 512 µg mL^−1 kanamycin A, 500 µM 83, absence of imipenem): slowed growth kinetics
Toxicity of 83 alone on bacteria [4, 9]: no toxicity
Kd [5]: 270 ± 50 nM
ΔH ([5]; ITC): -13.6 kcal/mol
inhibition at 100 µM [6]: 55%
Kd [7]: 1060 ± 170 nM
ΔH ([7]; ITC): -11.0 kcal/mol
inhibition at 100 µM [8]: 76%

From publication PMC12749166, “Fragment-based drug design of a bacterial kinase inhibitor capable of increasing the antibiotic sensitivity of clinical isolates” (Communications Chemistry, 2025)
